Reference: paper PMC4977651, “Molecular features of biguanides required for targeting of mitochondrial respiratory complex I and activation of AMP-kinase” (BMC Biology, 2016)
pIC50: −log10 of the molar value. Read-outs that look alike come from different tables or passages of the source.

Columns and labels:
[1] = Octanol/PBS partition coefficient, shake-flask method; format: physicochemical; conditions: 32 °C, pH 7.4, n = 3
Method: Octanol/PBS partition coefficients were measured by the shake-flask method at 32 °C, pH 7.4.

[2] = molecular target: isolated bovine heart complex I (Bos taurus, UniProt P03887+P03898+P17694+P42026); test: NADH:decylubiquinone oxidoreduction by isolated complex I; format: biochemical; conditions: for HillSlope (best fit value) / LogIC50 (best fit value): Prism fit; for HillSlope (best fit value): no std. error; for LogIC50 (best fit value): log of IC50 in mM; for remaining activity at 100 µM: inhibitor 0.10 mM; for remaining activity at 200 µM: inhibitor 0.20 mM; for remaining activity at 500 µM: inhibitor 0.50 mM; for remaining activity at 1000 µM: inhibitor 1.00 mM; for remaining activity at 2000 µM: inhibitor 2.00 mM; for remaining activity at 5000 µM: inhibitor 5.00 mM; for remaining activity at 50 µM: inhibitor 0.05 mM
Sequence of isolated bovine heart complex I (P42026 38-216): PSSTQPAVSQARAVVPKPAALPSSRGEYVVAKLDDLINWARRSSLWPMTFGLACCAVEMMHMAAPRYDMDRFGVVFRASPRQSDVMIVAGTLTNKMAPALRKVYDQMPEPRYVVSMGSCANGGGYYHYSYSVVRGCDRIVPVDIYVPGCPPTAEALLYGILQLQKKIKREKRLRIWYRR
Sequence of isolated bovine heart complex I (P17694 34-463): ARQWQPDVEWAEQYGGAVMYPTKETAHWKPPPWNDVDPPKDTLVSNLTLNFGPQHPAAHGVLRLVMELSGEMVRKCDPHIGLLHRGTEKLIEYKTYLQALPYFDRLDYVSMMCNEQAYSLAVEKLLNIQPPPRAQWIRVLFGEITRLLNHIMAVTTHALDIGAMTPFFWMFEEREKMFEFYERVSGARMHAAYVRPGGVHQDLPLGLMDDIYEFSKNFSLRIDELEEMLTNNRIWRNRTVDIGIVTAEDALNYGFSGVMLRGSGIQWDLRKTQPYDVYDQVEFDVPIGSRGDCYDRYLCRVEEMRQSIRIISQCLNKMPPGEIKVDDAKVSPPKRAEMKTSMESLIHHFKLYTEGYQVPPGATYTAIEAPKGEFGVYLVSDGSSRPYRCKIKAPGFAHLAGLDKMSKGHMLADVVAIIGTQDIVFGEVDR
Sequence of isolated bovine heart complex I (P03898 whole entry): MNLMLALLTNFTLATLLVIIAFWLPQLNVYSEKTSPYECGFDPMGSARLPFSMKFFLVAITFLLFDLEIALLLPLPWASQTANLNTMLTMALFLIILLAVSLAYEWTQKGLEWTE
Sequence of isolated bovine heart complex I (P03887 whole entry): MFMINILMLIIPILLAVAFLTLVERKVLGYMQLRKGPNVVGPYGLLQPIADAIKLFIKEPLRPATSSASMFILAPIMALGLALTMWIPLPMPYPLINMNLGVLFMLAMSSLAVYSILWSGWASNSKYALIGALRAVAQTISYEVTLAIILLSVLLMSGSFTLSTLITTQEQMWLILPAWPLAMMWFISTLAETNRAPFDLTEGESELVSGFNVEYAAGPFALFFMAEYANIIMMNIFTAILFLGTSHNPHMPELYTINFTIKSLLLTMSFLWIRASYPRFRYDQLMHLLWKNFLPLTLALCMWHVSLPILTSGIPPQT
Method: Complex I and mitochondrial membranes were prepared from Bos taurus (bovine) heart. Intact mitochondria were isolated from rat liver and mouse heart and liver. Membranes were prepared from mouse heart mitochondria by 5 s bursts of sonication at 4 °C and collected by centrifugation (75,000 × g, 1 h).
Assays were performed at 32 °C in a SpectraMax 96-well plate reader. NADH:decylubiquinone oxidoreduction by complex I at 0.5 μg mL^−1 was measured in 20 mM Tris-HCl (pH 7.2), 0.15 % soy bean asolectin (Avanti Polar Lipids), and 0.15 % 3-((3-cholamidopropyl)dimethylammonium)-1-propanesulfonate (CHAPS, Merck Chemicals Ltd), with 200 μM decylubiquinone and 200 μM NADH, and monitored using ε340–380(NADH) = 4.81 mM^−1 cm^−1 [23]. Catalysis was initiated by addition of NADH and maximal rates determined by linear regression. NADH:O2 oxidoreduction by membranes was measured similarly but using 5 μg mL^−1 membranes in 10 mM Tris-HCl (pH 7.4) and 250 mM sucrose using 200 μM NADH and supplemented with 0.15 mM horse heart cytochrome c (Sigma-Aldrich Ltd.). Succinate:O2 oxidoreduction was measured using 40 μg mL^−1 membranes in 5 mM succinate in 10 mM Tris-HCl (pH 7.4) as described previously. Control experiments included NaCl (to match the ionic strength) or DMSO, as appropriate.
Experimental values are reported as mean averages ± standard deviation (SD) of technical replicates for large sample sizes and mean averages ± standard error of the mean (SEM) of technical replicates for small sample sizes. Data were analyzed by the unpaired two-tailed Student’s t test. IC50 values were determined using the standard dose-effect relationship (activity (%) = 100 × IC50 / (IC50 + [inhibitor]^m) with the Hill Slope (m) set to unity for purified complex I) and are reported with 95 % confidence intervals.

[3] = test system: acetyl-coA carboxylase (phospho-Ser79); test: AMPK activation, western blot of phospho-acetyl-coA carboxylase in MDBK cells; format: cell-based, Bos taurus; conditions: for ACC, average normalised to control: Averages of experiments 1-3, 18 hours; for p-ACC: band intensity
Method: MDBK cells were seeded at 1 × 10^6 cells per 6 cm dish in DMEM containing 10 % FBS. […] After 18 h cells were harvested by a rapid lysis procedure: cells were rinsed with PBS, then lysed using ice-cold buffer containing 50 mM HEPES, 1 mM EDTA, 10 % glycerol, 50 mM NaF, 5 mM sodium pyrophosphate, 1 % Triton-X100, 1 mM dithiothreitol (DTT), and a protease inhibitor cocktail (Roche). The cell lysate was centrifuged at 14,000 × g for 20 min at 4 °C and the protein concentration of the supernatant determined by bicinchoninic acid assay. The lysate was analyzed using Novex 3–12 % bis-Tris gels run in 3-(N-morpholino)propanesulfonic acid (MOPS) buffer (20 μg of protein per lane) followed by transfer to low fluorescence polyvinylidene fluoride membranes by wet transfer. Primary rabbit antibodies for AMPK-β (57C12), AMPK-α (phospho-Thr172) (40H9), and acetyl-coA carboxylase (phospho-Ser79) (Cell Signaling Technology) were incubated overnight with the membrane (1:1000 dilution) in Odyssey blocking buffer at 4 °C. A fluorescent secondary antibody was used (IRDYE800CW from LI-COR Biosciences, 1:20,000 dilution) with a LI-COR Odyssey imaging system.

[4] = bovine heart purified mitochondrial complex I
[5] = bovine heart purified mitochondrial complex I, Prism log(inhibitor) vs. response fit, Bottom 0, Top 100, read-out: IC50 (best fit value)
[6] = bovine heart purified mitochondrial complex I, read-out: average % (rate, % of no-inhibitor control)

## CC(C)N=C(N)N=C(N)N [compound 4, 1-(diaminomethylidene)-2-(propan-2-yl)guanidine]
[1]
  P (partition coefficient): 0.061
  logP: -1.21
[2]; [4]
  HillSlope (best fit value): 1
  LogIC50 (best fit value): 0.8297
[2]; [5]
  pIC50: 2.17
[2]; bovine heart purified mitochondrial complex I, inhibitor 0.62 mM, read-out: average % (rate, % of no-inhibitor control)
  remaining activity at 620 µM: 88.4%
[2]; bovine heart purified mitochondrial complex I, inhibitor 1.56 mM, read-out: average % (rate, % of no-inhibitor control)
  remaining activity at 1560 µM: 84.5%
[2]; bovine heart purified mitochondrial complex I, inhibitor 3.00 mM, read-out: average % (rate, % of no-inhibitor control)
  remaining activity at 3000 µM: 70.3%
[2]; bovine heart purified mitochondrial complex I, inhibitor 5.80 mM, read-out: average % (rate, % of no-inhibitor control)
  remaining activity at 5800 µM: 54.5%
[2]; bovine heart purified mitochondrial complex I, inhibitor 15.62 mM, read-out: average % (rate, % of no-inhibitor control)
  remaining activity at 15620 µM: 30.1%
[2]; bovine heart purified mitochondrial complex I, inhibitor 31.25 mM, read-out: average % (rate, % of no-inhibitor control)
  remaining activity at 31250 µM: 16.1%
[2]; bovine heart purified mitochondrial complex I, inhibitor 62.50 mM, read-out: average % (rate, % of no-inhibitor control)
  remaining activity at 62500 µM: 5.52%
[3]
  ACC, average normalised to control: 13.65
[3]; Experiment 1, 18 hours
  p-ACC / AMPK beta: 2.64
  p-ACC / AMPK beta normalised to control: 13.60
  p-ACC: 1170
[3]; Experiment 2, 18 hours
  p-ACC / AMPK beta: 2.65
  p-ACC / AMPK beta normalised to control: 16.42
  p-ACC: 693
[3]; Experiment 3, 18 hours
  p-ACC / AMPK beta: 3.25
  p-ACC / AMPK beta normalised to control: 10.92
  p-ACC: 641

## NC(N)=NC(N)=NCc1ccccc1 [compound 3, 2-benzyl-1-(diaminomethylidene)guanidine]
[1]
  P (partition coefficient): 0.184
  logP: -0.734
[2]; [4]
  HillSlope (best fit value): 1
  LogIC50 (best fit value): -0.2463
[2]; [5]
  pIC50: 3.25
[2]; [6]
  remaining activity at 100 µM: 80%
  remaining activity at 200 µM: 65.6%
  remaining activity at 500 µM: 52.1%
  remaining activity at 1000 µM: 41%
  remaining activity at 2000 µM: 27.6%
  remaining activity at 5000 µM: 15.6%
[2]; bovine heart purified mitochondrial complex I, inhibitor 10.00 mM, read-out: average % (rate, % of no-inhibitor control)
  remaining activity at 10000 µM: 4.7%
[3]
  ACC, average normalised to control: 12.79
[3]; Experiment 1, 18 hours
  p-ACC / AMPK beta: 2.45
  p-ACC / AMPK beta normalised to control: 12.63
  p-ACC: 1150
[3]; Experiment 2, 18 hours
  p-ACC / AMPK beta: 2.31
  p-ACC / AMPK beta normalised to control: 14.32
  p-ACC: 699
[3]; Experiment 3, 18 hours
  p-ACC / AMPK beta: 3.41
  p-ACC / AMPK beta normalised to control: 11.43
  p-ACC: 770

## [H]/N=C(\N/C(=N/[H])Nc1ccc(Cl)cc1)NC(C)C [proguanil, reference compound]
[3]
  ACC, average normalised to control: 1.76
[3]; Experiment 1, 18 hours
  p-ACC / AMPK beta: 0.34
  p-ACC / AMPK beta normalised to control: 1.73
  p-ACC: 161
[3]; Experiment 2, 18 hours
  p-ACC / AMPK beta: 0.32
  p-ACC / AMPK beta normalised to control: 1.97
  p-ACC: 112
[3]; Experiment 3, 18 hours
  p-ACC / AMPK beta: 0.47
  p-ACC / AMPK beta normalised to control: 1.56
  p-ACC: 91.3

## CC(C)N=C(N)N=C(N)NC(C)C [compound 5, N-(propan-2-yl)-1-3-(propan-2-yl)carbamimidamidomethanimidamide]
[1]
  P (partition coefficient): 3.371
  logP: 0.528
[2]; [4]
  HillSlope (best fit value): 1
  LogIC50 (best fit value): -0.609
[2]; [5]
  pIC50: 3.61
[2]; [6]
  remaining activity at 50 µM: 79.4%
  remaining activity at 100 µM: 70.7%
  remaining activity at 200 µM: 55.4%
  remaining activity at 1000 µM: 20.8%
  remaining activity at 2000 µM: 12.9%
[2]; bovine heart purified mitochondrial complex I, inhibitor 0.40 mM, read-out: average % (rate, % of no-inhibitor control)
  remaining activity at 400 µM: 37.9%
[2]; bovine heart purified mitochondrial complex I, inhibitor 4.00 mM, read-out: average % (rate, % of no-inhibitor control)
  remaining activity at 4000 µM: 9.93%
[3]
  ACC, average normalised to control: 1.36
[3]; Experiment 1, 18 hours
  p-ACC / AMPK beta: 0.27
  p-ACC / AMPK beta normalised to control: 1.41
  p-ACC: 131
[3]; Experiment 2, 18 hours
  p-ACC / AMPK beta: 0.23
  p-ACC / AMPK beta normalised to control: 1.44
  p-ACC: 70.3
[3]; Experiment 3, 18 hours
  p-ACC / AMPK beta: 0.36
  p-ACC / AMPK beta normalised to control: 1.22
  p-ACC: 64.6

## N=C(N)NC(N)=Nc1ccccc1 [compound 2, phenyl biguanide]
[1]
  P (partition coefficient): 0.236
  logP: -0.627
[2]
  pIC50: 3.34
[2]; [4]
  HillSlope (best fit value): 1
  LogIC50 (best fit value): -0.3388
[3]
  ACC, average normalised to control: 1.20
[3]; Experiment 1, 18 hours
  p-ACC / AMPK beta: 0.25
  p-ACC / AMPK beta normalised to control: 1.30
  p-ACC: 118
[3]; Experiment 2, 18 hours
  p-ACC / AMPK beta: 0.22
  p-ACC / AMPK beta normalised to control: 1.36
  p-ACC: 75.8
[3]; Experiment 3, 18 hours
  p-ACC / AMPK beta: 0.28
  p-ACC / AMPK beta normalised to control: 0.93
  p-ACC: 59.9

## NC(N)=NC(N)=NCCc1ccc(Cl)cc1 [compound 1, 2-[2-(4-chlorophenyl)ethyl]-1-(diaminomethylidene)guanidine]
[1]
  logP: 0.149
[2]; [4]
  HillSlope (best fit value): 1
  LogIC50 (best fit value): -0.7098
[2]; [5]
  pIC50: 3.71
[2]; [6]
  remaining activity at 50 µM: 78.7%
  remaining activity at 100 µM: 67.7%
  remaining activity at 500 µM: 28.6%
  remaining activity at 1000 µM: 15.1%
  remaining activity at 5000 µM: 1.32%
[2]; bovine heart purified mitochondrial complex I, inhibitor 0.25 mM, read-out: average % (rate, % of no-inhibitor control)
  remaining activity at 250 µM: 44.8%
[2]; bovine heart purified mitochondrial complex I, inhibitor 2.50 mM, read-out: average % (rate, % of no-inhibitor control)
  remaining activity at 2500 µM: 2.59%
[3]
  ACC, average normalised to control: 9.49
[3]; Experiment 1, 18 hours
  p-ACC / AMPK beta: 1.85
  p-ACC / AMPK beta normalised to control: 9.53
  p-ACC: 848
[3]; Experiment 2, 18 hours
  p-ACC / AMPK beta: 2.03
  p-ACC / AMPK beta normalised to control: 12.57
  p-ACC: 727
[3]; Experiment 3, 18 hours
  p-ACC / AMPK beta: 1.89
  p-ACC / AMPK beta normalised to control: 6.35
  p-ACC: 483
